US3968233A, “α-Amino-γ-butyrolactones as sedatives” (priority 1975, dated 1976)
Entries after “also recorded” stand apart in the source; their conditions may differ.

Experiments:
Arterial blood pressure = assay type: in vivo; conditions: single 500 mg/kg oral dose
Protocol: (§1) The effect of a single 500 mg/kg oral dose of AP-28 was determined on (a) diuresis in water-loaded rats, (b) choleresis, (c) the excretion rate of intravenously-injected bromosulfonphthalein in bile, (d) arterial blood pressure.

[1] = Protective effect against electroshock (MES); conditions: AP-28 250 mg/kg i.p., 10 minutes before electroshock
[2] = Spontaneous mobility (light beam interruptions); assay type: in vivo, mouse
Protocol: Several groups of four mice each were placed in an apparatus designed to provide a measure of spontaneous mobility by counting the number of interruptions of a light beam for a period of 10 minutes. After preliminary measurement of mobility, animals were injected with AP-28 (250 and 500 mg/kg) intraperitoneally. Control animals received saline solution. Ten minutes thereafter the measurement of mobility was repeated. Five groups of mice were used as controls and six other groups were treated with varying doses of AP-28.

[3] = Clinical trial, 1st group: insomnia; assay type: in vivo, human; conditions: 400-600 mg one dose at night, 5 to 15 days; seven patients
Protocol: (§2) Clinical trials were performed on three groups of patients, partly hospitalized patients and partly outpatients. It was determined that the effect observed in the experimental pharmacological studies were useful in the treatment of humans as well.
Seven patients complaining of insomnia were treated for a period of time varying from 5 to 15 days. The daily dose was 400-600 mg given as one dose at night.

Choleresis = assay type: in vivo; conditions: single 500 mg/kg oral dose
Protocol: as §1

[4] = Clinical trial, 2nd group: strain and anxiety; assay type: in vivo, human; conditions: 500 to 1500 mg/day
Protocol: as §2
The dose levels used with these patients varied between 500 and 1500 mg/day, divided into two or three doses which were given during the day.

[5] = Time to death by slow intravenous infusion of strychnine; assay type: in vivo, mouse; conditions: for mean infusion time to cause animals to die: strychnine infusion 0.25 ml/min
Protocol: (3) continuous intravenous infusion at constant rate (0.4 ml/min) of a strychnine sulfate solution (26.66 mg/l) was carried out by injection through a tail vein into mice until they died. One group of animals received 500 mg/kg of AP-28 as preliminary treatment 15 minutes prior to the beginning of infusion. The mean infusion time to cause six control animals to die was 134 ± 3.2 seconds (mean ± SE). The mean infusion time required to obtain the same effect in animals pretreated with AP-28 was 210 ± 6.1 seconds.
In another experiment the infusion rate of strychnine was lowered to 0.25 ml/min. Under this condition, the mean infusion time was 246 ± 3.1 seconds in the case of controls (six animals) and 338 ± 24.3 seconds in that of treated animals.
When the same infusion rate as above was maintained and the amount of AP-28 was reduced to 250 mg/kg, the mean infusion time was 260 ± 13.4 seconds with control animals and 360 ± 21.2 seconds with treated animals.

[6] = Enhancement of the hypnotic effect of sodium pentobarbital; assay type: in vivo, mouse
Protocol: Forty mg/kg of sodium pentobarbital was injected intraperitoneally into mice and note was taken of animals losing the righting reflex and for how long. Other mice received a preliminary treatment with AP-28 at a dosage of 250 and 500 mg/kg, intraperitoneally, and thereafter sodium pentobarbital was given to them.

[7] = Diuresis in water-loaded rats; assay type: in vivo, rat
Protocol: as §1

[8] = Clinical trial, 3rd group: essential epilepsy; assay type: in vivo, human; conditions: 0.500 to 1.500 g daily, 10 to 30 days
Protocol: as §2
Four patients suffering from essential epilepsy were treated for periods of time varying between 10 and 30 days with daily doses ranging from 0.500 to 1.500 g. […] In the fourth patient it was possible to lower the anti-epileptic massive therapy they had been following for some time, and on which they were maintained throughout this study, by more than 50%.

[9] = Influence on amphetamine-induced hypermobility; assay type: in vivo, mouse; conditions: d-amphetamine sulfate 5 mg/kg i.p. + AP-28 250 mg/kg i.p. 15 minutes later
Protocol: Six groups of 4 mice each were treated with 5 mg/kg d-amphetamine sulfate by intraperitoneal administration. Six groups of 4 animals each received the same dose of d-amphetamine sulfate plus 250 mg/kg of AP-28 intraperitoneally 15 minutes after d-amphetamine sulfate; six more groups of four animals each received saline solution and served as control animals. […] The number of times each animal crossed the light beam throughout the 10-minute test was noted.

[10] = Excretion rate of intravenously-injected bromosulfonphthalein in bile; assay type: in vivo; conditions: single 500 mg/kg oral dose
Protocol: as §1

[11] = Clinical studies, overall; assay type: in vivo, human; conditions: humans
Protocol: as §2

[12] = Avoidance reflex in conditioned mice; assay type: in vivo, mouse; conditions: control 53.3 ± 4.5 sec
Source text: A conditioning cage was constructed of two chambers with free access between chambers. The floor of one compartment was electrified to make it possible to deliver a mild shock. Mice were conditioned by first giving a warning signal and then after a short period of time the shock was applied. Eventually the mice learned to leave the electrified compartment after the warning bell sounded and they were then judged to be conditioned. The average period of time, in this experiment, for control animals (4) to leave the compartment was 53.3 ± 4.5 sec. Four conditioned mice were administered AP-28 intraperitoneally with 250 mg/kg and their time was 60.6 ± 3.9 sec. Four more conditioned mice treated with 500 mg/kg of AP-28 required 77.5 ± 2.7 sec. to clear the compartment.

[13] = AP-28 250 + sodium pentobarbital 40 mg/kg i.p.
[14] = AP-28 500 + sodium pentobarbital 40 mg/kg i.p.

CCCCOC(=O)NC1CCOC1=O (stereo not drawn) [AP-28, α-n-butoxycarbonyl-amino-γ-butyrolactone]
arterial blood pressure (Arterial blood pressure): No treatment caused any significant change
Number animals died [1]: 0/8
Number animals with clonic convulsions ([1]; in parentheses number treated): 8(8)
Number animals with tonic convulsions ([1]; in parentheses number treated): 0(8)
Percent reduction at 2nd measurement ([2]; 250 mg/kg i.p.): 68.1%
mobility, percent of the baseline values ([2]; 250 mg/kg i.p.): 31.9%
Percent reduction at 2nd measurement ([2]; 500 mg/kg i.p.): 76.9%
mobility, percent of the baseline values ([2]; 500 mg/kg i.p.): 23.1%
Mean number of crossings (± SE) ([2]; after treatment, 250 mg/kg i.p.): 84.1 ± 15
Mean number of crossings (± SE) ([2]; after treatment, 500 mg/kg i.p.): 50.5 ± 5
Mean number of crossings (± SE) ([2]; before treatment, 250 mg/kg i.p. group): 261.5 ± 25
Mean number of crossings (± SE) ([2]; before treatment, 500 mg/kg i.p. group): 229 ± 15
effects on awakening (blunting or grogginess) [3]: no blunting or grogginess of their minds when they woke up; also recorded: no apparent effects on awakening
choleresis (Choleresis): No treatment caused any significant change
somnolence, daily torpor or motive conceptual slowness [4]: in no case somnolence, daily torpor or motive conceptual slowness were observed; also recorded: without causing daily drowsiness or torpor
disorders or difficulty in usual working activity ([4]; outpatients): No outpatient reported disorders or difficulty in carrying out their usual working activity
mean infusion time to cause animals to die ([5]; AP-28 250 mg/kg, control 260 ± 13.4): 360 ± 21.2 s
mean infusion time to cause animals to die (mean ± SE) ([5]; AP-28 500 mg/kg, 15 minutes prior, strychnine infusion 0.4 ml/min, control 134 ± 3.2): 210 ± 6.1 s
mean infusion time to cause animals to die ([5]; AP-28 500 mg/kg, control 246 ± 3.1): 338 ± 24.3 s
Animals under hypnosis/treated [6, 13]: 4/4
Duration of hypnosis in minutes (m ± SE) [6, 13]: 52.5 ± 13 min
Animals under hypnosis/treated [6, 14]: 4/4
Duration of hypnosis in minutes (m ± SE) [6, 14]: 75.2 ± 21.6 min
rate of urine excretion ([7]; 500 mg/kg oral daily for 5 subsequent days): the rate of urine excretion was slowed
diuresis ([7]; single 500 mg/kg oral dose): No treatment caused any significant change
lowering of anti-epileptic massive therapy, fourth patient [8]: more than 50%
Mean number of crossings (± SE) in 10 minutes [9]: 836 ± 100
excretion rate of bromosulfonphthalein in bile [10]: No treatment caused any significant change
adverse effects [11]: No adverse effects were observed
time to leave the electrified compartment ([12]; 250 mg/kg i.p.): 60.6 ± 3.9 s
time to leave the electrified compartment ([12]; 500 mg/kg i.p.): 77.5 ± 2.7 s
